Patent US7186559B2, “Apparatus and method for electroporation of biological samples” (Maxcyte, Inc., priority 2001, dated 2007)
Each block holds one compound with its values, some of them ahead of it.

Legend:
CLL-B cells = experiment: Caspase inhibitor effect on human CD40L transfection of CLL-B cells; format: cell-based; conditions: 100 μm inhibitor in culture medium, 24 hour post transfection
Protocol: Caspase inhibitor effect on human CD40L transfection of CLL-B cells was investigated. CLL-B cells (1.4×10^8 cells/mL) were electroporated by four 400 μs pulses at indicated electric fields in the present of DNA plasmid (200 μg/mL) coding for hCD40L. Following a 20 minute incubation at 37° C., cells were cultured in medium either with (+I) or without (−I) caspase inhibitor (Boc-Asp-FMK, 100 μm). hCD40L, expression was analyzed 24 hour post transfection by flow cytometry with antibodies against hCD40L conjugate-labeled with Cychrome.

Human platelets [1] = experiment: Loading of platelets with fluorescent marker by flow electroporation; format: cell-based
Protocol: Efficacy is expressed as the percentage of cells that took up fluorescent markers (calcein or albumin+fluorescein). “Activity” was determined by measuring biologic functions, such as secretion or aggregation (for MaxCyte's application, any detectable level will probably suffice). “Survival” is the circulating half-life in an animal model. FIGS. 23A and 23B show scatter plots from a flow cytometer. Control (FIG. 23A) was incubated in a dilute solution of the fluorescent dye, calcein, for approximately 1 hour. The test sample (FIG. 23B) was suspended in the same dye solution, but was run through the electroporation device. Similar results were obtained using fluoresceinated albumin.

Human platelets [2] = experiment: Activity (secretion or aggregation) of loaded platelets; format: cell-based
Protocol: Efficacy is expressed as the percentage of cells that took up fluorescent markers (calcein or albumin+fluorescein). “Activity” was determined by measuring biologic functions, such as secretion or aggregation (for MaxCyte's application, any detectable level will probably suffice). “Survival” is the circulating half-life in an animal model.

platelets = experiment: Collagen stimulation of calcein-loaded platelets; format: cell-based; conditions: platelets electroporated with calcein, collagen stimulus
Protocol: Platelets were treated in accordance with the present invention in the presence of a marker dye, calcein, then stimulated with increasing doses of collagen, a physiologic stimulant for platelets. […] FIGS. 24A and 24B show platelets that had been washed but otherwise not treated (Untreated[N]}), platelets that were incubated with the fluorescent marker calcein (calcein control) and platelets electroporated with calcein (electroporated) were subsequently stimulated with the physiologic stimulus, collagen.

[3] = Organ distribution of calcein-loaded platelets; format: in vivo, rabbit; conditions: rabbits, organs harvested within 1 half-life
Excerpt: In another series of studies, platelets loaded with calcein were infused into the rabbits and major organs harvested within 1 half-life.

hemoglobin = hemoglobin (Homo sapiens, UniProt P68871); conditions: cited from earlier work
Sequence of hemoglobin (P68871 2-147 limits assumed): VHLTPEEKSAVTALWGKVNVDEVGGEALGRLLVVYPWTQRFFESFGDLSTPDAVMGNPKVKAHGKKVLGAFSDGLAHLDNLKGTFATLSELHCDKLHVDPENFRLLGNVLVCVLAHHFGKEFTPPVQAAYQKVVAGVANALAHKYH
Sequence of hemoglobin (P69905 2-142 partner limits assumed): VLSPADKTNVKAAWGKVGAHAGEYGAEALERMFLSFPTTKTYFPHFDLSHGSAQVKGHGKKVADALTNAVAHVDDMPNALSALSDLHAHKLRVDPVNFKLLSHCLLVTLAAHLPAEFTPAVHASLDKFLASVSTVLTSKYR

resting Lymphocytes = experiment: Electroporation (transfection) of resting lymphocytes; format: cell-based, human; conditions: Static
Protocol: Primary lymphocytes were suspended in B&K buffer (125 mM KCl, 15 mM NaCl, 1.2 mM MgCl2, 3 mM glucose, 25 mM Hepes, pH 7.4) cell concentration was set from 1×10^7 cells/mL to 6×10^8 cells/mL together with DNA plasmid from 50 μg/mL to 1 mg/mL. DNA concentration was 50 ug/mL–1000 ug/mL. Electroporation was performed at 2.3 kV/cm, 400 μs, 4 pulses for small volume experiments (15 μl) or 2.2 kV/cm, 1.6 ms, 1 pulse for large volume experiments (0.5 ml–2 ml) was performed under static conditions at room temperature. […] Cells were cultured in culture medium for various periods (up to 72 hours) and the transfection efficiency was analyzed.
Seven transgenes (Ds-Red, eGFP, βGal, hEndostatin, HEPO, hIFNα, hIL-2) were tested in these experiments. […] When pCMV-Ds-Red or pCMV-EGFP was used, the percentage of the fluorescent cells was counted, by FACS or by manual counting under phase contrast and fluorescence microscope, as the transfection efficiency. […] When pCMV-Endostatin was used, the Endostatin concentration in the supernatant was analyzed by ELISA kit from Cytimmune Sciences, Inc. (College Park, Md.). For pCMV-EPO electroporation, the erythropoietin concentration in the supernatant was analyzed by R&D ELISA kit (Minneapolis, Minn.). […]

Compound: CC(C)(C)OC(=O)NC(CC(=O)O)C(=O)CF (stereo not drawn) [Boc-Asp-FMK]
hCD40L expression level (CLL-B cells): improves | hCD40L expression: percentage of expressed cells (CLL-B cells): improves

organ distribution of loaded platelets [3]: found in multiple organs
Compound: O=C(O)CN(CC(=O)O)Cc1cc2c(cc1O)Oc1cc(O)c(CN(CC(=O)O)CC(=O)O)cc1C21OC(=O)c2ccccc21 [CALCEIN, calcein]
Efficacy (% of cells with marker) (Human platelets [1]): 80+ % of cells with marker | Activity (% of control) (Human platelets [2]): 40–60 % of control | collagen-stimulated Calcein release (platelets): did not release the dye

Compound: O=P(O)(O)O[C@H]1[C@H](OP(=O)(O)O)[C@@H](OP(=O)(O)O)[C@H](OP(=O)(O)O)[C@@H](OP(=O)(O)O)[C@H]1OP(=O)(O)O [IHP, inositol hexaphosphate]
affinity to hemoglobin relative to DPG (hemoglobin; higher than DPG): 1000 fold | P50 of hemoglobin (hemoglobin; pH 7.4, 37° C.): ≤ 96.4 mm Hg

Compound: βGal
Efficiency (% of + cells) (resting Lymphocytes): 15% | Viability (resting Lymphocytes): 40%
